Experimental data from BigSolDB 2.1.

CC(=O)N1CCN(c2ccc(OC[C@@H]3CO[C@@](Cn4ccnc4)(c4ccc(Cl)cc4Cl)O3)cc2)CC1 (racemic)
solubility (mole fraction)
Settings | 293.2 K | 298.2 K | 303.2 K | 308.2 K | 313.2 K
in n-propanol | 0.0056 | 0.00703 | 0.00948 | 0.0128 | 0.0175
in water | 3.8e-07 | 4.25e-07 | 4.46e-07 | 4.8e-07 | 5.11e-07
